In patent US8785598B2, “Coenzyme Q10 nanoparticles, preparation method thereof and composition containing said nanoparticles” (Korea Research Institute of Bioscience and Biotechnology, priority 2009, dated 2014):

Assay: Confirmation of solubilization of coenzyme Q10 nanoparticle (visual, FIG. 9)
Type: physicochemical
Settings: dispersed in water
Text: FIG. 9 illustrates images of (1) coenzyme Q10 powder, (2) an aqueous solution separated into a supernatant layer when coenzyme Q10 is dispersed in water and (3) an aqueous solution of a coenzyme Q10 nanoparticle of Example 7 of the present invention.
As a result, a semi-transparent yellow aqueous solution was formed.

- solubility in water / appearance of aqueous solution: not soluble in water
SMILES: COC1=C(OC)C(=O)C(C/C=C(\C)CC/C=C(\C)CC/C=C(\C)CC/C=C(\C)CC/C=C(\C)CC/C=C(\C)CC/C=C(\C)CC/C=C(\C)CC/C=C(\C)CCC=C(C)C)=C(C)C1=O [coenzyme Q10]
